# Data as given in patent US8318762B2, “Pyrazolospiroketone acetyl-CoA carboxylase inhibitors” (Pfizer Inc., priority 2008, dated 2012).
# Biological target: T1, recombinant human ACC2 (Homo sapiens, UniProt O00763)
# T1 construct: a full length Cytomax clone of ACC2 was purchased from Cambridge Bioscience Limited; made in house; host or cells: CHO cells (tetracycline induction, pcDNA5 FRT TO-TOPO); purified on a Softlink Soft Release Avidin column
# Experiment: Measurement of human ACC2 inhibition (recombinant hACC2 Transcreener ADP detection FP assay)
# Type: biochemical
# Conditions: recombinant hACC2 transcreener assay; read-out: rhACC2 IC50
# Outline: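 Purified hACC2 from tetracycline-induced CHO cells (avidin-column eluate) was run in 50 mM HEPES pH7.5, 5 mM MgCl2, 5 mM citrate, 2 mM DTT, 0.5 mg/mL BSA with 30 μM acetyl-CoA, 50 μM ATP and 8 mM KHCO3. Reaction lasted 1 hour at room temperature; ADP was detected by Transcreener FP after another 1 hour.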
# T1 sequence (O00763 whole entry): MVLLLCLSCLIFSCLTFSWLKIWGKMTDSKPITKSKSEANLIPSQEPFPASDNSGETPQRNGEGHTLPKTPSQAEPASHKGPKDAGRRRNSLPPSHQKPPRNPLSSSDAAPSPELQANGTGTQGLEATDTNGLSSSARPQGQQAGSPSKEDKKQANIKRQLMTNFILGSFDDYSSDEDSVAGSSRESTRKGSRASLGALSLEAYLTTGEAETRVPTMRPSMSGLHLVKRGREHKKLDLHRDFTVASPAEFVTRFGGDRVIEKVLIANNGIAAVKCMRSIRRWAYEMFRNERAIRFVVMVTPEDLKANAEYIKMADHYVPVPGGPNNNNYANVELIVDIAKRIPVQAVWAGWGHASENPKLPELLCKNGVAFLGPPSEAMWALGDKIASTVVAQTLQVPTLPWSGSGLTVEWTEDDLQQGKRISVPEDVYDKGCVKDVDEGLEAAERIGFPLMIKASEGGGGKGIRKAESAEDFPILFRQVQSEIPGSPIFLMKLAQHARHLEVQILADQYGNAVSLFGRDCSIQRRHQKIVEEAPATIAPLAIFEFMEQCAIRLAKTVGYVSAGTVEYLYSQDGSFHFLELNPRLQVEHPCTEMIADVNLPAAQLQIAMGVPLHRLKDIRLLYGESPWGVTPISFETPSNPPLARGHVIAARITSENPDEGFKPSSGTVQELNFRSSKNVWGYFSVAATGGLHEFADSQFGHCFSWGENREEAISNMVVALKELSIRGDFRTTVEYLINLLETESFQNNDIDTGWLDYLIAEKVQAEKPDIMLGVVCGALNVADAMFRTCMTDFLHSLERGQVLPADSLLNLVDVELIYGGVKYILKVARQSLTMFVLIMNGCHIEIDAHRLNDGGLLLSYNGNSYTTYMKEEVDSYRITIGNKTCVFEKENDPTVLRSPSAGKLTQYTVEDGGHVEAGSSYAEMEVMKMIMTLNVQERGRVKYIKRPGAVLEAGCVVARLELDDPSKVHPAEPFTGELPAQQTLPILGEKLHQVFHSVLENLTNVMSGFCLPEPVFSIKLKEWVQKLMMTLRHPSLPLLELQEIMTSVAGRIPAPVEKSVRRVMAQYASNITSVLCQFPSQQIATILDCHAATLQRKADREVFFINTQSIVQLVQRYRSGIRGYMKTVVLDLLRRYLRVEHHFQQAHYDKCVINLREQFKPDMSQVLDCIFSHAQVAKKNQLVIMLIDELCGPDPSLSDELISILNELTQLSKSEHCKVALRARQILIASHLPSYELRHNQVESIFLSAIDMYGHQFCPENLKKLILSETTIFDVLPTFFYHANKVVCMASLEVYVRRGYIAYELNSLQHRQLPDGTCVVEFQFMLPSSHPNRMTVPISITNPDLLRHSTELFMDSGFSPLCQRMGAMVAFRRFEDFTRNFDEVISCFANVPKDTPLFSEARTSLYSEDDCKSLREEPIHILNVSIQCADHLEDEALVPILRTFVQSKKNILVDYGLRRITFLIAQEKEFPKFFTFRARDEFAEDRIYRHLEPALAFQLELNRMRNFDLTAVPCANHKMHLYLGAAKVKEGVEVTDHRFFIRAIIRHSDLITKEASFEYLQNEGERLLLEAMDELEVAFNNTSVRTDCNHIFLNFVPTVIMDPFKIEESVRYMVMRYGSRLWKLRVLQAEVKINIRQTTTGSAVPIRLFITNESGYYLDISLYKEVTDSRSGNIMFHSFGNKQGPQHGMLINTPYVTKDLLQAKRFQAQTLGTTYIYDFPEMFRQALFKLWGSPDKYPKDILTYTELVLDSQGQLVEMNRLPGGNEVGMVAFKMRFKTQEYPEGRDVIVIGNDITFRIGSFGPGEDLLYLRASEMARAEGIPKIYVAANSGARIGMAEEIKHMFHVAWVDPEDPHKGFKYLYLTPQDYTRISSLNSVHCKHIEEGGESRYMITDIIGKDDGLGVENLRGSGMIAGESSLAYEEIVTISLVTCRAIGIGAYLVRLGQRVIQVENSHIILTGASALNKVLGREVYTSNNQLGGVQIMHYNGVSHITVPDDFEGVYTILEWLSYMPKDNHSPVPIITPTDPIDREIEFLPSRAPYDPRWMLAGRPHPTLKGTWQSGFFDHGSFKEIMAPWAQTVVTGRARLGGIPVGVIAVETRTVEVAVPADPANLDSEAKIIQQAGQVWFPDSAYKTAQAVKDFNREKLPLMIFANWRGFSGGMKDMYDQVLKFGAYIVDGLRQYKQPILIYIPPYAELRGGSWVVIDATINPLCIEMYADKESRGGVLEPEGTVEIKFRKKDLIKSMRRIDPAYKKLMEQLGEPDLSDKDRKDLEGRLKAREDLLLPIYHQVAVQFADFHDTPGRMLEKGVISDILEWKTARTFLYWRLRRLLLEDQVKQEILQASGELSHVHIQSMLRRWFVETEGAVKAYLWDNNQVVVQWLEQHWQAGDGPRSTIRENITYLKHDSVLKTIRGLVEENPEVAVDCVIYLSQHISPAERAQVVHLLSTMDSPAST
row,IC50 [nM],Structure (SMILES)
1,> 1000,CC(C)n1cc2c(n1)C(=O)CC1(CCN(C(=O)c3ccc4oncc4c3)CC1)O2 [22.001]
2,518,CC(C)(C)n1cc2c(n1)C(=O)CC1(CCN(C(=O)c3ccc4oncc4c3)CC1)O2 [22.002]
3,> 1000,CCn1nc2c(c1C)OC1(CCN(C(=O)c3ccc4oncc4c3)CC1)CC2=O [22.003]
4,585,Cc1noc2cc(C(=O)N3CCC4(CC3)CC(=O)c3nn(C(C)C)cc3O4)ccc12 [23.001]
5,55,Cc1noc2cc(C(=O)N3CCC4(CC3)CC(=O)c3nn(C(C)(C)C)cc3O4)ccc12 [23.002]
6,335,CCn1nc2c(c1C)OC1(CCN(C(=O)c3ccc4c(C)noc4c3)CC1)CC2=O [23.003]
7,> 1000,CC(C)n1cc2c(n1)C(=O)CC1(CCN(C(=O)c3ccc4cnoc4c3)CC1)O2 [23.004]
8,158,CC(C)(C)n1cc2c(n1)C(=O)CC1(CCN(C(=O)c3ccc4cnoc4c3)CC1)O2 [23.005]
9,23,CC(C)(C)n1cc2c(n1)C(=O)CC1(CCN(C(=O)c3ccc4cnsc4c3)CC1)O2 [24.001]
10,198,CC(C)n1cc2c(n1)C(=O)CC1(CCN(C(=O)c3ccc4cnsc4c3)CC1)O2 [24.002]
11,411,CCn1nc2c(c1C)OC1(CCN(C(=O)c3ccc4cnsc4c3)CC1)CC2=O [24.003]
12,122,CCn1nc2c(c1C)OC1(CCN(C(=O)c3ccc4nn(C)cc4c3)CC1)CC2=O [25.004]
13,1540,Cc1c2c(nn1C)C(=O)CC1(CCN(C(=O)c3ccc4nn(C)cc4c3)CC1)O2 [25.005]

# The next lines start with the compound.
row,Structure (SMILES),IC50 [nM]
1,CCn1nc2c(c1C)OC1(CCN(C(=O)c3ccc4occc4c3)CC1)CC2=O [17.002],283
2,Cn1ccc2ccc(C(=O)N3CCC4(CC3)CC(=O)c3nn(C(C)(C)C)cc3O4)cc21 [18.001],3
3,CCn1nc2c(c1C)OC1(CCN(C(=O)c3ccc4ccn(C)c4c3)CC1)CC2=O [18.002],33
4,CC(C)(C)n1cc2c(n1)C(=O)CC1(CCN(C(=O)c3ccc4c(=O)[nH]ccc4c3)CC1)O2 [19.001],9
5,CC(C)(C)n1cc2c(n1)C(=O)CC1(CCN(C(=O)c3ccc4[nH]c(=O)oc4c3)CC1)O2 [20.001],28
6,CC(C)(C)n1cc2c(n1)C(=O)CC1(CCN(C(=O)c3ccc4cc[nH]c(=O)c4c3)CC1)O2 [21.001],16
